Assay: solvent given as SMILES
[1] = in O=P(c1ccccc1)(c1ccccc1)c1ccccc1Oc1ccccc1P(=O)(c1ccccc1)c1ccccc1

Structure (SMILES): CCC1=C(C)C2=Cc3c4ccccc4c4n3[B-](c3ccccc3)(Oc3ccccc3-4)[N+]2=C1C (stereo not drawn)
- emission maximum (in CC#N): 634 nm
- emission maximum (in CCCCCC): 636 nm
- emission maximum (in Cc1ccccc1): 640 nm
- emission maximum (in ClCCl): 638 nm

Structure (SMILES): C#CCN1C(=O)/C(=C/c2cc(OC(C)C)ccc2OC(C)C)N=C1C
- emission maximum (in C1COCCO1): 476 nm
- emission maximum (in CC#N): 508 nm
- emission maximum (in CC(C)=O): 487 nm
- emission maximum (in CCCCCC): 440 nm
- emission maximum (in CCCCO): 516 nm
- emission maximum (in CCCO): 521 nm
- emission maximum (in CCO): 523 nm
- emission maximum (in CCOC(C)=O): 475 nm
- emission maximum (in CN(C)C=O): 500 nm
- emission maximum (in CO): 538 nm
- emission maximum (in CS(C)=O): 510 nm

Structure (SMILES): Fc1ccc(-c2cc3c4c(c2)CCc2cc(-c5ccc(F)cc5)cc(c2-4)CC3)cc1
- emission maximum (in C1CCCCC1): 374.66 nm
- emission maximum (in C1CCOC1): 378.18 nm
- emission maximum (in CC#N): 375.98 nm
- emission maximum (in CCCCCC): 374.51 nm
- emission maximum (in CCO): 375.24 nm
- emission maximum (in CN(C)C=O): 380.68 nm
- emission maximum (in CO): 375.1 nm
- emission maximum (in ClC(Cl)Cl): 379.68 nm
- emission maximum (in ClCCl): 378.91 nm

Structure (SMILES): c1ccc(-c2ccnc(-c3ccccc3)n2)cc1
- emission maximum (in ClC(Cl)Cl): 311 nm

Structure (SMILES): CCOC(=O)c1c2c3c(ccc(OC)c3c3cc4ccccc4cc13)N(C)C2=O
- emission maximum (in CC#N): 413 nm

Structure (SMILES): Nc1ccc2c(c1)C(=O)c1ccccc1-2
- emission maximum (in C1CCCCC1): 569 nm
- emission maximum (in c1ccccc1): 622 nm

Structure (SMILES): N#C/C(=C\c1ccc(Cl)cc1)c1nc(-c2ccccc2)c(-c2ccccc2)s1
- emission maximum (in CC#N): 501 nm

Structure (SMILES): Cc1ccc(-c2c3ccc([nH]3)c3nc(c(-c4ccc([N+](=O)[O-])cc4)c4ccc([nH]4)c4ccc([nH]4)c(-c4ccc(C)cc4)c4ccc2o4)C=C3)cc1
- emission maximum (in C1CCOC1): 758 nm
- emission maximum (in Cc1ccccc1): 737 nm
- emission maximum (in c1ccccc1): 737 nm

Structure (SMILES): CC1=[N+]2C(=C(/C=C/c3ccc(C(F)(F)F)cc3)c3ccc(C)n3[B-]2(F)F)C=C1c1cc2n(c1)[B-](F)(F)[N+]1=CC=CC1=C2c1c(C)cc(C)cc1C
- emission maximum (in C1CCCCC1): 704 nm
- emission maximum (in CCOC(C)=O): 710 nm

Structure (SMILES): [NH3+]C(Cc1ccc(O)cc1)C(=O)[O-] (stereo not drawn)
- emission maximum (in O): 304 nm

Structure (SMILES): C/C(=N\Nc1ccc(C#N)cc1)c1cccc(/C(C)=N/Nc2ccc(C#N)cc2)c1
- emission maximum (in CC#N): 492 nm
- emission maximum (in CCCCCC): 467 nm
- emission maximum (in CO): 525 nm
- emission maximum (in CS(C)=O): 504 nm
- emission maximum (in ClC(Cl)Cl): 476 nm

Structure (SMILES): c1ccc(-n2c(-c3ccc([Si](c4ccc(-c5nc6ccccc6n5-c5ccccc5)cc4)(c4ccc(-c5nc6ccccc6n5-c5ccccc5)cc4)c4ccc(-c5nc6ccccc6n5-c5ccccc5)cc4)cc3)nc3ccccc32)cc1
- emission maximum (in ClCCl): 363 nm

Structure (SMILES): CC(C)(C)OC(=O)c1c(C=Cc2ccccc2)oc(NC2CCCCC2)c1C(=O)OC(C)(C)C
- emission maximum (in CC#N): 462 nm

Structure (SMILES): CCn1c2ccccc2c2cc(-c3cc(-c4ccc5c(c4)c4ccccc4n5CC)ncn3)ccc21
- emission maximum (in C1CCOC1): 395 nm
- emission maximum (in CCOC(C)=O): 392 nm
- emission maximum (in CN(C)C=O): 418 nm
- emission maximum (in Cc1ccccc1): 379 nm
- emission maximum (in ClCCl): 414 nm

Structure (SMILES): CCCN1/C(=C/C=C(/C=C/C2=[N+](CCC)c3ccccc3C2(C)C)c2ccc([N+](=O)[O-])cc2)C(C)(C)c2ccccc21
- emission maximum (in CO): 656 nm
- emission maximum (in CS(C)=O): 664 nm
- emission maximum (in O): 663 nm

Structure (SMILES): CC(C)(C)c1ccc2c(c1)c1cc(C(C)(C)C)ccc1n2-c1ccc(C#Cc2ccc3c4ccc(C#Cc5ccc(C=O)cc5)cc4n(-c4ccc(C(F)(F)F)cc4)c3c2)cc1
- emission maximum (in ClCCl): 422 nm

Structure (SMILES): CCCCCCCCCCCCOc1ccc(C2=c3sc4ccccc4c3=[N+]3C2=Nc2c(-c4ccc(OCCCCCCCCCCCC)cc4)c4sc5ccccc5c4n2[B-]3(F)F)cc1
- emission maximum (in C1CCOC1): 813 nm
- emission maximum (in Cc1ccccc1): 804 nm
- emission maximum (in ClC(Cl)Cl): 808 nm

Structure (SMILES): c1ccc(-c2ccc(-c3ccc(N(c4ccccc4)c4ccccc4)cc3)c3nsnc23)cc1
- emission maximum (in C1CCOC1): 578 nm
- emission maximum (in CC(C)=O): 619 nm
- emission maximum (in CCCCCC): 526 nm
- emission maximum (in CCOCC): 558 nm

Structure (SMILES): Cc1ccc(C2=[N+]3C(=Cc4ccc(C)n4[B-]3(F)F)c3ccccc32)[nH]1
- emission maximum (in C1CCOC1): 621 nm
- emission maximum (in CC#N): 620 nm
- emission maximum (in CCCCCC): 613 nm
- emission maximum (in CO): 616 nm
- emission maximum (in Cc1ccccc1): 623 nm
- emission maximum (in ClCCl): 624 nm

Structure (SMILES): CN(C)c1ccc(C#Cc2ccc(C#N)cc2)cc1
- emission maximum (in C1CCCCC1): 383 nm
- emission maximum (in C1CCOC1): 505 nm
- emission maximum (in C1COCCO1): 446.01 nm
- emission maximum (in CC1CCCO1): 468.01 nm
- emission maximum (in CC#N): 571 nm
- emission maximum (in CC(C)=O): 543.01 nm
- emission maximum (in CC(C)CC(C)(C)C): 380 nm
- emission maximum (in CC(C)O): 510 nm
- emission maximum (in CCCCCCCCCCCCCCCC): 385 nm
- emission maximum (in CCCCCCCCCCCCCCCCCl): 423.6 nm
- emission maximum (in CCOC(C)=O): 482 nm
- emission maximum (in CCOCC): 453 nm
- emission maximum (in CN(C)C=O): 566 nm
- emission maximum (in CO): 547.02 nm
- emission maximum (in CS(C)=O): 573 nm
- emission maximum (in Cc1ccccc1): 427 nm

Structure (SMILES): CC(C)(C)c1ccc(C(C)(C)C)c(N2C(=O)c3cccc4c(-c5ccc(-c6ccccc6)s5)ccc(c34)C2=O)c1
- emission maximum (in CO): 572 nm
- emission maximum (in CS(C)=O): 557 nm
- emission maximum (in Cc1ccccc1): 493 nm

Structure (SMILES): Cc1ccc(/N=C2/C3=c4[nH]c5ccccc5c4=[N+](c4ccc(C)cc4)[B-](F)(F)N3c3ccccc32)cc1
- emission maximum (in ClCCl): 756 nm

Structure (SMILES): c1ccc2c(c1)nc1ccccn12
- emission maximum (in CC#N): 414 nm

Structure (SMILES): CCCCOc1c(Br)cc2cc(Br)c(OCCCC)c3c4c(OCCCC)c(Br)cc5cc(Br)c(OCCCC)c(c1c23)c54
- emission maximum (in ClCCl): 489 nm

Structure (SMILES): N#Cc1cc(C#N)c(-n2c3ccccc3c3c(-c4cccc5c4c4ccccc4n5-c4cc(-n5c6ccccc6c6ccccc65)c(C#N)cc4C#N)cccc32)cc1-n1c2ccccc2c2ccccc21
- emission maximum [1]: 444 nm

Structure (SMILES): CC(C)c1ccc2ccc3c(C(C)C)ccc4ccc1c2c43
- emission maximum (in CCCCCC): 380 nm
- emission maximum (in CO): 380 nm
- emission maximum (in ClCCl): 381 nm

Structure (SMILES): COc1cc2c(c(OC)c1OC)c1ccc3cccc4c5cccc6oc(=O)c2c(c65)c1c34
- emission maximum (in C1CCOC1): 492 nm

Structure (SMILES): COc1cccc(-c2c3ccccc3c3n2[B-](F)(F)[N+]2=Cc4c5ccccc5c(-c5cccc(OC)c5)n4[B-](F)(F)[N+]2=C3)c1
- emission maximum (in CC#N): 596 nm
- emission maximum (in CCCCCC): 598 nm
- emission maximum (in CN(C)C=O): 603 nm
- emission maximum (in Cc1ccccc1): 608 nm
- emission maximum (in ClCCl): 602 nm

Structure (SMILES): N#Cc1ccc(N(c2ccccc2)c2ccc3ccc4c(N(c5ccccc5)c5ccc(C#N)cc5)ccc5ccc2c3c54)cc1
- emission maximum (in ClCCl): 454 nm

Structure (SMILES): CCCN1C(=O)c2c3c(c4c(c2C1=O)CCc1cc(-c2ccc(N(C)C)cc2)c(OC)cc1-4)-c1cc(OC)c(-c2ccc(N(C)C)cc2)cc1CC3
- emission maximum (in C1CCCCC1): 511 nm
- emission maximum (in C1CCOC1): 602 nm
- emission maximum (in CCOC(C)=O): 598 nm
- emission maximum (in Cc1ccccc1): 548 nm
- emission maximum (in ClCCl): 613 nm

Structure (SMILES): CC[n+]1c(-c2ccccc2)c2cc(N)ccc2c2ccc(N)cc21
- emission maximum (in O): 606 nm

Structure (SMILES): CC[C@H](C)COc1ccc(C2=C3C(C)=C(I)C(C)=[N+]3[B-](F)(F)n3c(C)c(I)c(C)c32)cc1
- emission maximum (in ClCCl): 557 nm

Structure (SMILES): CC(=O)c1c2c(cc3ccc(N(C)C)cc13)CCC2
- emission maximum (in C1CCCCC1): 466 nm
- emission maximum (in C1CCOC1): 497 nm
- emission maximum (in C1COCCO1): 495 nm
- emission maximum (in CC#N): 529 nm
- emission maximum (in CCO): 578 nm
- emission maximum (in CS(C)=O): 536 nm
- emission maximum (in Cc1ccccc1): 490 nm
- emission maximum (in ClC(Cl)Cl): 516 nm
- emission maximum (in ClCCl): 510 nm

Structure (SMILES): c1ccc(-c2cc(-c3ccc(N4c5ccccc5C(c5ccccc5)(c5ccccc5)c5ccccc54)cn3)nc(-c3ccccc3)n2)cc1
- emission maximum (in Cc1ccccc1): 480 nm
- emission maximum [1]: 486 nm

Structure (SMILES): Cc1cc(C)c([B-]2(c3c(C)cc(C)cc3C)[O+]=P(c3ccccc3)(c3ccccc3)c3cc(C#Cc4ccccc4)sc3-c3sc(C#Cc4ccccc4)cc32)c(C)c1
- emission maximum (in C1CCOC1): 498 nm

Structure (SMILES): N#Cc1cc(-n2c3ccccc3c3ccccc32)c(C#N)cc1-n1c2ccccc2c2ccccc21
- emission maximum (in c1cc(-c2cccc(-n3c4ccccc4c4ccccc43)c2)cc(-n2c3ccccc3c3ccccc32)c1): 370 nm
- emission maximum (in c1ccc2c(c1)c1ccccc1n2P1(n2c3ccccc3c3ccccc32)=NP(n2c3ccccc3c3ccccc32)(n2c3ccccc3c3ccccc32)=NP(n2c3ccccc3c3ccccc32)(n2c3ccccc3c3ccccc32)=N1): 370 nm

Structure (SMILES): [O-]c1ccccc1-c1[nH+]c2c3ccccc3c3ccccc3c2o1
- emission maximum (in Cc1ccccc1): 495 nm

Structure (SMILES): CC1=C(/C=C/c2ccccc2)C2=Cc3c(/C=C/c4ccccc4)c(C)c(C)n3[B-](F)(F)[N+]2=C1C
- emission maximum (in CC#N): 589 nm

Structure (SMILES): CCCCN(CCCC)c1ccc2c#cc3cc4c#cc5ccc(C(F)(F)F)cc5c#cc#cc5cc(C(F)(F)F)ccc5c#cc4cc3c#cc3ccc(N(CCCC)CCCC)cc3c#cc#cc2c1
- emission maximum (in ClCCl): 554 nm
- emission maximum (in c1ccccc1): 504 nm

Structure (SMILES): CCCCCCC(CCCCCC)n1c(=O)c2c3ccc4cccc5c6cccc7ccc(c2c1=O)c(c76)c3c45
- emission maximum (in C1CCCCC1): 471 nm
- emission maximum (in CC#N): 527 nm
- emission maximum (in CC(C)=O): 514 nm
- emission maximum (in CCCCCC): 469 nm
- emission maximum (in CCO): 550 nm
- emission maximum (in CCOCC): 495 nm
- emission maximum (in CS(C)=O): 534 nm
- emission maximum (in Cc1ccccc1): 491 nm
- emission maximum (in ClC(Cl)(Cl)Cl): 482 nm
- emission maximum (in ClC(Cl)Cl): 522 nm

Structure (SMILES): CN(C)c1ccc(N2c3sc4ccccc4c3Sc3sc4ccccc4c32)cc1
- emission maximum (in ClCCl): 424 nm

Structure (SMILES): C1=CN2C[n+]3cccc(OCc4ccccc4)c3N=C2C(OCc2ccccc2)=C1
- emission maximum (in CO): 487 nm

Structure (SMILES): Cc1ccc2nc3cc4c(cc3c(-c3ccccc3)c2c1)[Si](C)(C)O[Si](C)(C)O[Si]4(C)C
- emission maximum (in ClCCl): 502 nm

Structure (SMILES): C[SiH](C)c1ccc([SiH](C)C)c2ccccc12
- emission maximum (in C1CCCCC1): 333 nm

Structure (SMILES): C=CCOc1nnc(OCCC(F)(F)C(F)(F)C(F)(F)C(F)(F)C(F)(F)C(F)(F)F)nn1
- emission maximum (in ClCCl): 573 nm
- emission maximum (in OCC(F)(F)F): 562 nm

— the Deep4Chem optical property database
